Data: ChEMBL document CHEMBL1148144, “Horiolide, a novel norditerpenoid from Indian ocean soft coral of the genus Sinularia” (J Nat Prod, 2002)
The source made the active and inactive calls.

How the values were obtained:
Assay type in all cases: functional, organism-based
Rhizomucor miehei = test: Antifungal activity against Mucor miehei
Bacillus subtilis = test: Antibacterial activity against Bacillus subtilis
Chlorella sorokiniana = test: Antialgal activity against Chlorella sorokiniana
Chlorella vulgaris = test: Antialgal activity against Chlorella vulgaris
Chlorella salina = test: Antialgal activity against Chlorella salina
Staphylococcus aureus = test: Antibacterial activity against Staphylococcus aureus
Escherichia coli = test: Antibacterial activity against Escherichia coli

Measured: Activity

C=C(C)[C@@H]1CC(=O)[C@H]2[C@H](C1)[C@@H]1C(=O)O[C@H]3[C@@H]1CC(=O)[C@H]2[C@H]3C(C)=O
inactive: all assays above
